These results are taken from US7109360B1, “16-hydroxyestratrienes as selectively active estrogens” (priority 1999, dated 2006).

Experiment [1] addresses T1, human estrogen receptor β (Homo sapiens, UniProt Q92731).
T1 construct: made in house; host or cells: Baculovirus/SF-9
Description: Binding to human estrogen receptor β produced by Baculovirus/SF-9 expression system. As to conditions: for hERβ RBA / ERβ/ERα: Table 2; for hERβ RBA: human ERβ from Baculovirus/SF-9, estradiol = 100; for ERβ/ERα: quotient RBA ERβ / RBA ERα.

Experiment [2] concerns estrogen receptor preparations of rat prostates. Nature of the experiment: Competitive 3H-estradiol binding to estrogen receptor of rat prostate cytosol. The note with it: for prost. ER/uterus ER: ratio RBA prostate-ER / RBA uterus-ER.
The test system of experiment [3] is hERβ. As to conditions: Table 1; estradiol = 100; cited from Kuiper et al. (1996); cited from earlier work.
Experiment [4] addresses T2, human estrogen receptor α (Homo sapiens, UniProt P03372).
T2 construct: made in house; host or cells: Baculovirus/SF-9
T2 sequence (P03372 1-595): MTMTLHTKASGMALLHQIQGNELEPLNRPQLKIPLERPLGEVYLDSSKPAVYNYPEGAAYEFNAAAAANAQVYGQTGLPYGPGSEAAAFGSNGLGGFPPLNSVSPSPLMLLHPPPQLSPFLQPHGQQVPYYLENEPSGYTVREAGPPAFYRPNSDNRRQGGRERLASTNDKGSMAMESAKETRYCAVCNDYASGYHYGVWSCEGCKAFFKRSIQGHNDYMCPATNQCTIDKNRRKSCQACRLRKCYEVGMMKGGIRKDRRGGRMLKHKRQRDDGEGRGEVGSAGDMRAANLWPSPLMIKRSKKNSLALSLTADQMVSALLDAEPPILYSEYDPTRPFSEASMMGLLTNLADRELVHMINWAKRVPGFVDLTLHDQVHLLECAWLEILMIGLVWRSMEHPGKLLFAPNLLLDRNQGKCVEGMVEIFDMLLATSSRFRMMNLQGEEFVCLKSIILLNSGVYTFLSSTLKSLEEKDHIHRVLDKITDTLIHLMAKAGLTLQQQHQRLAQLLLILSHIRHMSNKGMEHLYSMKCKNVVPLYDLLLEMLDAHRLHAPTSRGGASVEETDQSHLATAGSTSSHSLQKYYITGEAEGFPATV
Description: Binding to human estrogen receptor α produced by Baculovirus/SF-9 expression system. As to conditions: Table 2; human ERα from Baculovirus/SF-9, estradiol = 100.

Experiment [5] has as its target T3, estrogen receptor preparations of rat uteri (Rattus norvegicus, UniProt P06211).
T3 construct: The preparation of rat uterus cytosol, as well as the receptor test with the ER-containing cytosol; from tissue; host or cells: rat uterus cytosol
T3 sequence (P06211 1-600): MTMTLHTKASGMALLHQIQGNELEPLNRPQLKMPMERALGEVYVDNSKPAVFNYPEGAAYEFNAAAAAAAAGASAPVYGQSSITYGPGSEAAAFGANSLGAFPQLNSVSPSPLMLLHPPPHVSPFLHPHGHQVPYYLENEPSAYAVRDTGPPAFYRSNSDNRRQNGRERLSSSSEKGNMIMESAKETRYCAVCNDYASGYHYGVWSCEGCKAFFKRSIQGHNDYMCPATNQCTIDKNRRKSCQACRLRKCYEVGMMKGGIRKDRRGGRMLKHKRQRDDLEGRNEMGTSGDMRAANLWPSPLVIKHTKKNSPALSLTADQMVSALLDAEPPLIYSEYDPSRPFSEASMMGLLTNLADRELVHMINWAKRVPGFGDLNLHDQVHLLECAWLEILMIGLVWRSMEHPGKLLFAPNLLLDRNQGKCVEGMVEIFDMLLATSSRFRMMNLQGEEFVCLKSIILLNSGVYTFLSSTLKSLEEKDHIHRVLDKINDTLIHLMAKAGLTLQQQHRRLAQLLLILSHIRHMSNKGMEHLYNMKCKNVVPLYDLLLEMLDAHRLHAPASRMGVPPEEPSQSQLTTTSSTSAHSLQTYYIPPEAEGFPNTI
Description: Competitive 3H-estradiol binding to estrogen receptor of rat uterus cytosol.

The subject of experiment [6] is hERβ. Nature of the experiment: Relative binding affinity to hERβ, cited from Kuiper et al. Set-up: species or system human. The note with it: Table 1; quotient of cited RBA hERβ / hERα. The source says:
In this case, it is assumed that ERβ predominates in the rat prostates over ERα, and ERα predominates in rat uteri over ERβ.

For experiment [7], the system named is trabecular bone density in ovariectomized female rats. Description: Bone studies: bone density of proximal tibia (pQCT) in ovariectomized rats. It counts as in vivo, rat. As to conditions: s.c. once daily for 28 days, relative to bone mass loss of untreated ovariectomized vs sham-operated animals. The method, then: (§1) Three-month-old female rats are ovariectomized and treated once daily with the test compound immediately after the operation for 28 days. The administration is carried out subcutaneously in arachis oil/ethanol. The animals are sacrificed on the day after the last administration, and tibia as well as uteri are removed. The uteri are weighed, fixed and worked up for histological studies. The determination of bone density is carried out ex vivo on prepared long bones by means of pQCT (quantitative computer tomography). The measurements are made at a distance of 4–6 mm from the ball of the joint of the proximal tibia.
The ovariectomy reduces the density of the trabecular bone in the measured area by about 400 mg of Ca^2+/cm^3 to about 300 mg of Ca^2+/cm^3. By treatment with a compound of general formula I according to this invention, the degradation of the bone density is prevented or inhibited. The bone density in the proximal tibia was measured.
(§2) Estra-1,3,5(10)-triene-3,16α-diol reflects this in vivo in the greatly different amounts, which produce a 50% bone protection [3 μg/animal] or a 50% uterus stimulation [30 μg/animal], relative to the bone mass loss, which can be measured in ovariectomized, untreated female rats 28 days after the ovariectomy unlike in intact animals that are subjected to sham operations.

In experiment [8] the test system is uterus of ovariectomized female rats. Nature of the experiment: Bone studies: uterus stimulation (uterus weight) in ovariectomized rats. It counts as in vivo, rat. The note with it: s.c. once daily for 28 days. On the procedure: as §1, §2
Where [9] appears, read: Table 1, 3H-estradiol as ligand, estradiol = 100.

T1 sequence (Q92731 whole entry): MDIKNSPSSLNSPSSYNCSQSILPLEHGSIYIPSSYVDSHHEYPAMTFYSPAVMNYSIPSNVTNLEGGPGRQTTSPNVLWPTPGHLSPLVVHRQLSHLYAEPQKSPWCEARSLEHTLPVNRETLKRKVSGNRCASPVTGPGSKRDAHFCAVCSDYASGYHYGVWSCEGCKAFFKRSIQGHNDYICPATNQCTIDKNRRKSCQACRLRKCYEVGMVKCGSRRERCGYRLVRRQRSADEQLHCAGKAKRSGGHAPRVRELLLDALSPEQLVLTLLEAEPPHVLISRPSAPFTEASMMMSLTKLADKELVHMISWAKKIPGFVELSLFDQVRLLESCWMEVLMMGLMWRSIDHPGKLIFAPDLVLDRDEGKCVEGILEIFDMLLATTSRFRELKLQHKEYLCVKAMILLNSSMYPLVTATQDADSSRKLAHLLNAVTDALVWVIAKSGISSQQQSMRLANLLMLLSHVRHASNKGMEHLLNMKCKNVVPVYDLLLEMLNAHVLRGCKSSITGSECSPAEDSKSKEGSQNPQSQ

Regarding `O=c1oc2cc(O)ccc2c2oc3cc(O)ccc3c12` [Coumestrol], the “hERβ RBA” value in experiment [1] turned out to be 100.

`C[C@]12CC[C@H]3[C@@H](CC=C4C[C@@H](O)CC[C@@]43C)[C@@H]1CC[C@@H]2O` [5-Androstenediol]: the “Rat prost. ER (RBA)” value in experiment [2] (setting [9]) was determined as 5; in experiment [2] (Table 2, estradiol = 100) it was 5. Moreover, the “prost. ER/uterus ER” value in experiment [2] (Table 1) and in experiment [2] (Table 2) was 50 each time. The “hERβ RBA” value is 10 in experiment [1] and 17 in experiment [3]. The ERβ/ERα turned out to be 6 in experiment [1] and 3 in experiment [6]. Further, the “hERα RBA” value in experiment [4] is reported as 1.7. Besides, the “Rat uterus ER (RBA)” value in experiment [5] (setting [9]) was found to be 0.1; in experiment [5] (Table 2, estradiol = 100), 0.1.

Take `C[C@]12CC[C@@H]3c4ccc(O)cc4CC[C@H]3[C@@H]1CC[C@H]2O` [17α-Estradiol]: in experiment [2] (setting [9]), the “Rat prost. ER (RBA)” value came to 1.3.

For `C[C@]12CC[C@@H]3c4ccc(O)cc4CC[C@H]3[C@@H]1C[C@@H](O)C2=O` [16α-hydroxyestrone], the “RBA value on rat prostate estrogen receptor relative to RBA value on rat uterus estrogen receptor” value in experiment [2] is “five times better”. Moreover, the “binding to human estrogen receptor β relative to human estrogen receptor α” value in experiment [1] is “three times better”.

As to `C[C@]12CC[C@@H]3c4ccc(O)cc4CC[C@H]3[C@@]13CC[C@]2(O)[C@H](O)C3` [Cyclotriol], the “Rat prost. ER (RBA)” value in experiment [2] (Table 2, estradiol = 100) stood at 17. Also, in experiment [2] (Table 2), the “prost. ER/uterus ER” value is reported as 0.3. Also, in experiment [1], the “hERβ RBA” value turned out to be 10 and the ERβ/ERα was 0.3. In experiment [4], the “hERα RBA” value amounted to 36. For the same compound, in experiment [5] (Table 2, estradiol = 100), the “Rat uterus ER (RBA)” value is given as 50.

In the case of `O=c1c(-c2ccc(O)cc2)coc2cc(O)cc(O)c12` [Genisteine], the “Rat prost. ER (RBA)” value in experiment [2] (setting [9]) was 10; in experiment [2] (Table 2, estradiol = 100) it was 10.

As to `O=C(c1ccc(OCCN2CCCCC2)cc1)c1c(-c2ccc(O)cc2)sc2cc(O)ccc12` [Raloxifene], the “Rat prost. ER (RBA)” value in experiment [2] (Table 2, estradiol = 100) is reported as 1.5. For the same compound, the “hERβ RBA” value in experiment [1] was determined as 9.

With `C[C@]12CC[C@@H]3c4ccc(O)cc4CC[C@H]3[C@@H]1C[C@@H](O)[C@@H]2O` [Estriol], the “hERβ RBA” value in experiment [3] is reported as 21.

On to `C[C@]12CC[C@@H]3c4ccc(O)cc4CC[C@H]3[C@@H]1C[C@@H](O)C2` [16α-Estradiol, estra-1,3,5(10)-triene-3,16α-diol], for which, in experiment [2] (Table 3), the “Rat prost. ER (RBA)” value was found to be 50. Besides, in experiment [1] (Table 3), the “Receptor binding ERβ (RBA)/ERα (RBA)” value was 6. Further, the 50% bone protection in experiment [7] turned out to be 3 μg/animal. The compound further registered a 50% uterus stimulation in experiment [8] of 30 μg/animal. Besides, the “Rat uterus ER (RBA)” value in experiment [5] (Table 3) was 9.

For the compound `C#C[C@@]1(O)C[C@@H]2CC[C@@H]3[C@H](CC[C@@]4(C)[C@H]3CC[C@@]4(O)C#C)[C@@]2(C)C1` [Anordiol], the “Rat prost. ER (RBA)” value in experiment [2] (Table 2, estradiol = 100) is below 0.01. Further, in experiment [2] (Table 2), the “prost. ER/uterus ER” value was below 0.01. In addition, in experiment [1], the “hERβ RBA” value turned out to be 0.2 and the ERβ/ERα is listed as 0.01. The “hERα RBA” value in experiment [4] is recorded as 15. Moreover, the “Rat uterus ER (RBA)” value in experiment [5] (Table 2, estradiol = 100) came to 6.6.
